Series [1] has as its system normal skin surrounding the vitiligo lesion. The series is described as follows: Topical psoralen / PUVA therapy of vitiligo lesions: skin reaction around the lesion. Type of series: in vivo. The source says: FIG. 1 A depicts hyper pigmentation surrounding vitiligo lesion following topical Psoralen therapy
Series [2] deals with vitiligo. The settings on record: monotherapy without ultra violet exposure; personal observation of N Ostovari; cited from earlier work.

Consider `COc1c2occc2cc2ccc(=O)oc12` [8 methoxypsoralen, 9-methoxy-7H-furo[3,2-g][1]-benzopyran-7-one], for which the “Pigmentory change surrounding the vitiligo lesion (FIG. 1A)” value in series [1] (following topical use) is listed as “hyperpigmentation”. The “Skin reaction surrounding the vitiligo lesion (FIG. 1B)” value in series [1] (two applications of 1.0% solution at alternate days, topical PUVA therapy) is listed as “Erythematous photo toxic reaction”.

For `C=CC[C@@H]1/C=C(\C)C[C@H](C)C[C@H](OC)[C@H]2O[C@@](O)(C(=O)C(=O)N3CCCC[C@H]3C(=O)O[C@H](/C(C)=C/[C@@H]3CC[C@@H](O)[C@H](OC)C3)[C@H](C)[C@@H](O)CC1=O)[C@H](C)C[C@@H]2OC` [tacrolimus], the Repigmenting potential entry in series [2] is “little or no repigmenting potential”.

Source of the values: patent US20160235708A1, “TOPICAL PIGMENTORY COMPOSITION” (priority 2013, published 2016).
